Test results as given in patent publication US5969132.
Where two headings read alike, the source gives them in different places.

Settings: amide bond, NaHCO3, CH2Cl2, 72.0 h, 2 steps

Row | SMILES | ring closure, yield of all isomers (from CC(C)[C@H](COCc1ccccc1)NC(=O)C(F)(F)C(O)[C@H](Cc1ccc(OCC(=O)Oc2c(F)c(F)c(F)c(F)c2F)cc1)NC(=O)[C@@H](NC(=O)CNC(=O)OC(C)(C)C)C(C)C, 1.69 mM) | ring closure, yield of all isomers (from CC(C)[C@H](NC(=O)CNC(=O)OC(C)(C)C)C(=O)N[C@@H](Cc1ccc(OCC(=O)Oc2c(F)c(F)c(F)c(F)c2F)cc1)C(O)C(F)(F)C(=O)NCc1ccccc1)
1 | CC(C)[C@H](COCc1ccccc1)NC(=O)C(F)(F)[C@H](O)[C@@H]1Cc2ccc(cc2)OCC(=O)NCC(=O)N[C@@H](C(C)C)C(=O)N1 | 8% | –
2 | CC(C)[C@@H]1NC(=O)CNC(=O)COc2ccc(cc2)C[C@@H](C(O)C(F)(F)C(=O)NCc2ccccc2)NC1=O (some centres unmarked) | – | 78.7%
